Patent publication USRE47302E1 (ONYX THERAPEUTICS INC., priority 2013, dated 2019)
In brackets after ≈: the same amount, converted by molar mass.

test: Solubility pH 7; details: pH 7, aqueous buffer

**Q.** Which solubility does the source give for C[C@H](NC(=O)CN1CCOCC1)C(=O)N[C@@H](Cc1ccc2c(c1)CCS(=O)(=O)N2)C(=O)N[C@@H](CC1CCCC1)C(=O)[C@@]1(C)CO1 [Compound C-1102, (S)-N-((S)-3-cyclopentyl-1-((R)-2-methyloxiran-2-yl)-1-oxopropan-2-yl)-3-(2,2-dioxido-3,4-dihydro-1H-benzo[c][1,2]thiazin-6-yl)-2-((S)-2-(2-morpholinoacetamido)propanamido)propanamide] here?
**A.** Its solubility is 3410 µg/mL (≈ 5260 µM).

**Q.** For COc1ccc(C[C@H](NC(=O)[C@@H](NC(=O)CN2CCOCC2)C2CC2)C(=O)N[C@@H](CC2CCCC2)C(=O)[C@@]2(C)CO2)cc1 [Compound C-1107, (S)-N-((S)-3-cyclopentyl-1-((R)-2-methyloxiran-2-yl)-1-oxopropan-2-yl)-2-((S)-2-cyclopropyl-2-(2-morpholinoacetamido)acetamido)-3-(4-methoxyphenyl)propanamide], which solubility is on record?
**A.** Its solubility is 200 µg/mL (≈ 334 µM).

**Q.** With C[C@H](NC(=O)CN1CCOCC1)C(=O)N[C@@H](Cc1ccc2c(c1)CNC(=O)O2)C(=O)N[C@@H](CC1CCCC1)C(=O)[C@@]1(C)CO1 [Compound C-1108, (S)-N-((S)-3-cyclopentyl-1-((R)-2-methyloxiran-2-yl)-1-oxopropan-2-yl)-2-((S)-2-(2-morpholinoacetamido)propanamido)-3-(2-oxo-3,4-dihydro-2H-benzo[e][1,3]oxazin-6-yl)propanamide] as the molecule, how does the solubility read?
**A.** The solubility was 4730 µg/mL (≈ 7710 µM).

**Q.** Which solubility does the source give for COc1ccc(C[C@H](NC(=O)[C@@H](C)NC(=O)[C@]2(C)CC[C@@H](O)CC2)C(=O)N[C@@H](CC2=CCCC2)C(=O)[C@@]2(C)CO2)cc1 [Compound C-1111, (1r,4R)-N-((R)-1-(((S)-1-(((S)-3-(Cyclopent-1-en-1-yl)-1-((R)-2-methyloxiran-2-yl)-1-oxopropan-2-yl)amino)-3-(4-methoxyphenyl)-1-oxopropan-2-yl)amino)-1-oxopropan-2-yl)-4-hydroxy-1-methylcyclohexanecarboxamide] here?
**A.** Its solubility is 1070 µg/mL (≈ 1840 µM).

**Q.** Which solubility does the source give for COc1ccc(C[C@H](NC(=O)[C@@H](C)NC(=O)[C@]2(C)CC[C@H](O)CC2)C(=O)N[C@@H](CC2=CCCC2)C(=O)[C@@]2(C)CO2)cc1 [Compound C-1112, (1s,4S)-N-((R)-1-(((S)-1-(((S)-3-(cyclopent-1-en-1-yl)-1-((R)-2-methyloxiran-2-yl)-1-oxopropan-2-yl)amino)-3-(4-methoxyphenyl)-1-oxopropan-2-yl)amino)-1-oxopropan-2-yl)-4-hydroxy-1-methylcyclohexanecarboxamide] here?
**A.** The solubility was 1110 µg/mL (≈ 1910 µM).

**Q.** With C[C@H](NC(=O)CN1CCOCC1)C(=O)N[C@@H](Cc1ccc(O)cc1)C(=O)N[C@@H](CC1CCCC1)C(=O)[C@@]1(C)CO1 [Compound C-1113, (S)-N-((S)-3-cyclopentyl-1-((R)-2-methyloxiran-2-yl)-1-oxopropan-2-yl)-3-(4-hydroxyphenyl)-2-((S)-2-(2-morpholinoacetamido)propanamido)propanamide] as the molecule, how does the solubility read?
**A.** The solubility was 3790 µg/mL (≈ 6780 µM).

**Q.** For C[C@H](NC(=O)CN1CCOCC1)C(=O)N[C@@H](Cc1cccc(O)c1)C(=O)N[C@@H](CC1CCCC1)C(=O)[C@@]1(C)CO1 [Compound C-1114, (S)-N-((S)-3-cyclopentyl-1-((R)-2-methyloxiran-2-yl)-1-oxopropan-2-yl)-3-(3-hydroxyphenyl)-2-((S)-2-(2-morpholinoacetamido)propanamido)propanamide], which solubility is on record?
**A.** Its solubility is 793 µg/mL (≈ 1420 µM).

**Q.** Which solubility does the source give for COc1ccc(C[C@H](NC(=O)[C@H](C)NC(=O)CN2CCS(=O)(=O)CC2)C(=O)N[C@@H](CC2=CCCC2)C(=O)[C@@]2(C)CO2)cc1 [Compound C-1115, (S)-N-((S)-3-(cyclopent-1-en-1-yl)-1-((R)-2-methyloxiran-2-yl)-1-oxopropan-2-yl)-2-((S)-2-(2-(1,1-dioxidothiomorpholino)acetamido)propanamido)-3-(4-methoxyphenyl)propanamide] here?
**A.** Its solubility is 496 µg/mL (≈ 801 µM).

**Q.** For COc1ccc(C[C@H](NC(=O)[C@H](C)NC(=O)CN2CCNC(=O)C2)C(=O)N[C@@H](CC2=CCCC2)C(=O)[C@@]2(C)CO2)cc1 [Compound C-1120, (S)-N-((S)-3-(cyclopent-1-en-1-yl)-1-((R)-2-methyloxiran-2-yl)-1-oxopropan-2-yl)-3-(4-methoxyphenyl)-2-((S)-2-(2-(3-oxopiperazin-1-yl)acetamido)propanamido)propanamide], which solubility is on record?
**A.** Its solubility is 8000 µg/mL (≈ 13700 µM).

**Q.** Which solubility does the source give for COc1ccc(C[C@H](NC(=O)[C@H](C)NC(=O)CN2CCC(C)(O)CC2)C(=O)N[C@@H](CC2=CCCC2)C(=O)[C@@]2(C)CO2)cc1 [Compound C-1121, (S)-N-((S)-3-(cyclopent-1-en-1-yl)-1-((R)-2-methyloxiran-2-yl)-1-oxopropan-2-yl)-2-((S)-2-(2-(4-hydroxy-4-methylpiperidin-1-yl)acetamido)propanamido)-3-(4-methoxyphenyl)propanamide] here?
**A.** Its solubility is 287 µg/mL (≈ 479 µM).

**Q.** Which solubility does the source give for COc1ccc(C[C@H](NC(=O)[C@H](C)NC(=O)CN2CCOCC2)C(=O)N[C@@H](CC2=CC(C)CC2)C(=O)[C@@]2(C)CO2)cc1 (stereo partly drawn) [Compound C-1122, (2S)-3-(4-methoxyphenyl)-N-((2S)-3-(3-methylcyclopent-1-en-1-yl)-1-((R)-2-methyloxiran-2-yl)-1-oxopropan-2-yl)-2-((S)-2-(2-morpholinoacetamido)propanamido)propanamide] here?
**A.** Its solubility is 1830 µg/mL (≈ 3120 µM).

**Q.** With C[C@H](NC(=O)CN1CCOCC1)C(=O)N[C@@H](Cc1ccc2[nH]ccc2c1)C(=O)N[C@@H](CC1CCCC1)C(=O)[C@@]1(C)CO1 [Compound C-1123, (S)-N-((S)-3-cyclopentyl-1-((R)-2-methyloxiran-2-yl)-1-oxopropan-2-yl)-3-(1H-indol-5-yl)-2-((S)-2-(2-morpholinoacetamido)propanamido)propanamide] as the molecule, how does the solubility read?
**A.** Its solubility is 1470 µg/mL (≈ 2520 µM).

**Q.** Which solubility does the source give for C[C@H](NC(=O)CN1CCOCC1)C(=O)N[C@@H](Cc1ccc2cc[nH]c2c1)C(=O)N[C@@H](CC1CCCC1)C(=O)[C@@]1(C)CO1 [Compound C-1124, (S)-N-((S)-3-cyclopentyl-1-((R)-2-methyloxiran-2-yl)-1-oxopropan-2-yl)-3-(1H-indol-6-yl)-2-((S)-2-(2-morpholinoacetamido)propanamido)propanamide] here?
**A.** The solubility was 56.5 µg/mL (≈ 97.1 µM).

**Q.** Which solubility does the source give for C[C@H](NC(=O)CN1CCOCC1)C(=O)N[C@@H](Cc1ccc(S(C)(=O)=O)cc1)C(=O)N[C@@H](CC1=CCCCC1)C(=O)[C@@]1(C)CO1 [Compound C-1126, (S)-N-((S)-3-(cyclohex-1-en-1-yl)-1-((R)-2-methyloxiran-2-yl)-1-oxopropan-2-yl)-3-(4-(methylsulfonyl)phenyl)-2-((S)-2-(2-morpholinoacetamido)propanamido)propanamide] here?
**A.** The solubility was 7280 µg/mL (≈ 11500 µM).

**Q.** With C[C@H](NC(=O)CN1CCOCC1)C(=O)N[C@@H](CCc1ccccc1)C(=O)N[C@@H](CC1=CCCC1)C(=O)[C@@]1(C)CO1 [Compound C-1128, (S)-N-((S)-3-(Cyclopent-1-en-1-yl)-1-((R)-2-methyloxiran-2-yl)-1-oxopropan-2-yl)-2-((S)-2-(2-morpholinoacetamido)propanamido)-4-phenylbutanamide] as the molecule, how does the solubility read?
**A.** Its solubility is 1370 µg/mL (≈ 2470 µM).

**Q.** For Cc1ccc(C[C@H](NC(=O)[C@H](C)NC(=O)CN2CCOCC2)C(=O)N[C@@H](CC2=CCCCC2)C(=O)[C@@]2(C)CO2)cc1O [Compound C-1130, (S)-N-((S)-3-(cyclohex-1-en-1-yl)-1-((R)-2-methyloxiran-2-yl)-1-oxopropan-2-yl)-3-(3-hydroxy-4-methylphenyl)-2-((S)-2-(2-morpholinoacetamido)propanamido)propanamide], which solubility is on record?
**A.** The solubility was 1140 µg/mL (≈ 1950 µM).

**Q.** With Cc1cc(C[C@H](NC(=O)[C@H](C)NC(=O)CN2CCOCC2)C(=O)N[C@@H](CC2=CCCC2)C(=O)[C@@]2(C)CO2)ccc1O [Compound C-1131, (S)-N-((S)-3-(cyclopent-1-en-1-yl)-1-((R)-2-methyloxiran-2-yl)-1-oxopropan-2-yl)-3-(4-hydroxy-3-methylphenyl)-2-((S)-2-(2-morpholinoacetamido)propanamido)propanamide] as the molecule, how does the solubility read?
**A.** The solubility was 1700 µg/mL (≈ 2980 µM).

**Q.** For COc1ccc(C[C@H](NC(=O)[C@@H](NC(=O)CN2CCOCC2)C(F)(F)F)C(=O)N[C@@H](CC2=CCCC2)C(=O)[C@@]2(C)CO2)cc1 [Compound C-1132, (R)-N-((S)-1-(((S)-3-(cyclopent-1-en-1-yl)-1-((R)-2-methyloxiran-2-yl)-1-oxopropan-2-yl)amino)-3-(4-methoxyphenyl)-1-oxopropan-2-yl)-3,3,3-trifluoro-2-(2-morpholinoacetamido)propanamide], which solubility is on record?
**A.** Its solubility is 159 µg/mL (≈ 254 µM).

**Q.** For C[C@H](NC(=O)CN1CCOCC1)C(=O)N[C@@H](Cc1ccn(C)c(=O)c1)C(=O)N[C@@H](CC1=CCCC1)C(=O)[C@@]1(C)CO1 [Compound C-1137, (S)-N-((S)-3-(cyclopent-1-en-1-yl)-1-((R)-2-methyloxiran-2-yl)-1-oxopropan-2-yl)-3-(1-methyl-2-oxo-1,2-dihydropyridin-4-yl)-2-((S)-2-(2-morpholinoacetamido)propanamido)propanamide], which solubility is on record?
**A.** Its solubility is over 10000 µg/mL.

**Q.** For C#CC[C@H](NC(=O)CN1CCOCC1)C(=O)N[C@@H](Cc1ccc(OC)cc1)C(=O)N[C@@H](CC1=CCCC1)C(=O)[C@@]1(C)CO1 [Compound C-1139, (S)-N-((S)-1-(((S)-3-(Cyclopent-1-en-1-yl)-1-((R)-2-methyloxiran-2-yl)-1-oxopropan-2-yl)amino)-3-(4-methoxyphenyl)-1-oxopropan-2-yl)-2-(2-morpholinoacetamido)pent-4-ynamide], which solubility is on record?
**A.** Its solubility is 172 µg/mL (≈ 289 µM).

**Q.** With COc1ccc(C[C@H](NC(=O)[C@H](C)NC(=O)CN2CCOCC2)C(=O)N[C@@H](CC2=CCCC2)C(=O)[C@@]2(C)CO2)cn1 [Compound C-1140, (S)-N-((S)-3-(cyclopent-1-en-1-yl)-1-((R)-2-methyloxiran-2-yl)-1-oxopropan-2-yl)-3-(6-methoxypyridin-3-yl)-2-((S)-2-(2-morpholinoacetamido)propanamido)propanamide] as the molecule, how does the solubility read?
**A.** The solubility was over 10000 µg/mL.

**Q.** Which solubility does the source give for COc1cc(C[C@H](NC(=O)[C@H](C)NC(=O)CN2CCOCC2)C(=O)N[C@@H](CC2=CCCC2)C(=O)[C@@]2(C)CO2)ccn1 [Compound C-1141, (S)-N-((S)-3-(Cyclopent-1-en-1-yl)-1-((R)-2-methyloxiran-2-yl)-1-oxopropan-2-yl)-3-(2-methoxypyridin-4-yl)-2-((S)-2-(2-morpholinoacetamido)propanamido)propanamide] here?
**A.** Its solubility is 9010 µg/mL (≈ 15800 µM).
